Values quoted from earlier work as cited in patent US7446204B2, “Amino substituted aryloxybenzylpiperidine derivatives” (H. Lundbeck A/S, priority 2004, dated 2008).
Read-outs that look alike come from different tables or passages of the source.

What was measured:
[1] = target: T1, MCH1 receptor (Rattus norvegicus, UniProt P97639); conditions: rat social interaction; Borowsky et al., Nature Medicine 2002
T1 construct: host or cells: living rats (endogenous receptor)

[2] = target: T1, MCH1 receptor; conditions: rat forced-swim; Borowsky et al., Nature Medicine 2002
[3] = target: T2, MCH1 receptor (Cavia porcellus, UniProt H0VKT7); conditions: guinea pig maternal-separation vocalization; Borowsky et al., Nature Medicine 2002
T2 construct: host or cells: living guinea pigs (endogenous receptor)
T2 sequence (H0VKT7 1-355): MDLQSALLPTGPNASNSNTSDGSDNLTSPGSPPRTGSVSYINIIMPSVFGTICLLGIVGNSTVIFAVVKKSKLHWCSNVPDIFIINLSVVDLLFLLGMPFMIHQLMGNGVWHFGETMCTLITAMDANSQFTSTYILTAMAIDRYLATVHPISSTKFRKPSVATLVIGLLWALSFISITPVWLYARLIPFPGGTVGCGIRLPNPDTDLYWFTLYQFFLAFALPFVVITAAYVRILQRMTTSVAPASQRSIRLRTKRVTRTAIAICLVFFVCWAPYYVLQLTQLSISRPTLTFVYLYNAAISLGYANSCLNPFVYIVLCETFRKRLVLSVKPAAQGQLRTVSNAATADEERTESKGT

T1 sequence (P97639 whole entry): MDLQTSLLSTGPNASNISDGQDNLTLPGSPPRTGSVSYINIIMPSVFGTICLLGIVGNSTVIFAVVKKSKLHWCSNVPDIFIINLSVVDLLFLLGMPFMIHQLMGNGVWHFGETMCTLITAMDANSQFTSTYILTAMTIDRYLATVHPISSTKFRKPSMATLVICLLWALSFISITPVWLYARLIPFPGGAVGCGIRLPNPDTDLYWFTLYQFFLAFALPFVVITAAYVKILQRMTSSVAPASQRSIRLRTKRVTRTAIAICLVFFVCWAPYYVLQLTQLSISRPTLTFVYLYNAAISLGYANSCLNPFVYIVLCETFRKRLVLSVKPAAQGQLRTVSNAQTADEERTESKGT

Compound: COCC1=C(C(=O)OC)[C@H](c2ccc(F)c(F)c2)N(C(=O)NCCCN2CCC(c3cccc(NC(C)=O)c3)CC2)C(=O)N1 [SNAP-7941]
- profile in behavioral model of depression and/or anxiety [1]: profile similar to clinically used anti-depressants and anxiolytics
- profile in behavioral model of depression and/or anxiety [2]: profile similar to clinically used anti-depressants and anxiolytics
- profile in behavioral model of depression and/or anxiety [3]: profile similar to clinically used anti-depressants and anxiolytics
